Assay results as given in patent US9884841B2, “Small molecule inhibitors of Mcl-1 and uses thereof” (The Regents of the University of Michigan, priority 2015, dated 2018).
“Also recorded” adds a separate entry of the source. Values belong to the molecule of their own block, whether it stands above or below them.

What was measured:
Mcl-1 [1] = biological target: T1, Mcl-1 (Homo sapiens, UniProt Q07820); assay: FP based binding assay to Mcl-1 (Bid BH3 peptide probe)
Target sequence in this assay (Q07820 whole entry): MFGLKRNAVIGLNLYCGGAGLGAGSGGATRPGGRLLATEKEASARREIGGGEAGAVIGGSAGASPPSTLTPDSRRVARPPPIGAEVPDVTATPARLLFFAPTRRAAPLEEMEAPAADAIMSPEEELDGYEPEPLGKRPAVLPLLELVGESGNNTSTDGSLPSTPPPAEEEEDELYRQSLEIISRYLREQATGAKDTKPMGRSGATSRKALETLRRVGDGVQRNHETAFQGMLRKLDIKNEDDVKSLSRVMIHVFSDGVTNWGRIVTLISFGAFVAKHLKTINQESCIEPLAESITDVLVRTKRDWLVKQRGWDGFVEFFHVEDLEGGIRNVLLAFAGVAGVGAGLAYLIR

Mcl-1 [2] = biological target: T1, Mcl-1; assay: HSQC NMR spectroscopy of binding to Mcl-1 protein; conditions: compound in complex with Mcl-1
Excerpt: [drawing 85] with 5,6-difuran-2-yl-1,2,4-triazine core identified with high throughput screening (see, e.g., Du, Y., et al., Assay and drug development technologies 9, 382-393). […] The second furan ring has weak hydrophobic interaction with residues Phe 318 and Phe 319, which are located proximal to the conserved h4 pocket (FIG. 1). These two residues were identified that contribute to additional hydrophobic contacts with the staple of a reported stabilized α-helix (see, e.g., Stewart, M. L., et al., Nat Chem Biol 6, 595-601).
[drawing 86] was de-novo designed (FIG. 1). In the 368, one furan ring was replaced with carboxylate moiety in order to improve the conserved hydrogen bond, the other furan ring was replaced with phenylsulfonamido and the side chain was changed to phenethylthio substituent in order to allow further modification for improving hydrophobic interactions.
Target sequence in this assay (Q07820 whole entry): as above

Mcl-1 knockout MEFs = assay type: cell-based; conditions: 15 h
Description: Cell viability was assessed using propidium iodide staining detected with flow cytometry. […] The percentage of dead cells was calculated using LIVE/DEAD fixable violet dead cell stain (VIVID) and detected with flow cytometry.

Panc-1 cells = assay: Cell growth inhibition of Panc-1 by MTT assay, ABT-263 with 483; assay type: cell-based
Excerpt: FIG. 7: 483 synergizes with ABT-263 to kill Panc-1 cells.
As expected, ABT-263 had little effect on this cell line (FIG. 7).

Bcl-2 = Bcl-2 (Homo sapiens, UniProt P10415); assay: Binding selectivity, Bcl-2
Chain of Bcl-2 (P10415 whole entry, species assumed): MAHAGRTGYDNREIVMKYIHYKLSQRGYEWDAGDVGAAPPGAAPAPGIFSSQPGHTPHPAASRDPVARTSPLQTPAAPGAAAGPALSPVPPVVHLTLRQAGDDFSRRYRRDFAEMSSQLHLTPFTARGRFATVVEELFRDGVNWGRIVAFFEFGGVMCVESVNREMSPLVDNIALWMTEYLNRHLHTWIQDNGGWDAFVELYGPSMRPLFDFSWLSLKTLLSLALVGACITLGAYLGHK

Bcl-xL [3] = biological target: T2, Bcl-xL (Homo sapiens, UniProt Q07817); assay: Binding selectivity, Bcl-xL
T2 sequence (Q07817 whole entry, species assumed): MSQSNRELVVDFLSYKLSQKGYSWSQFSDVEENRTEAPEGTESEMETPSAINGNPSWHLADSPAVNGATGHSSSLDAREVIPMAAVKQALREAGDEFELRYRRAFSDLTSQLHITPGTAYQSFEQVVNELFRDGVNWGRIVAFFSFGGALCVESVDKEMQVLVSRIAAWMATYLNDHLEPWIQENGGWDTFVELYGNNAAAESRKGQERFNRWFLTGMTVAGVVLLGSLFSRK

Bcl-w = biological target: T3, Bcl-w (Homo sapiens, UniProt Q92843); assay: Binding selectivity, Bcl-w
T3 sequence (Q92843 1-193): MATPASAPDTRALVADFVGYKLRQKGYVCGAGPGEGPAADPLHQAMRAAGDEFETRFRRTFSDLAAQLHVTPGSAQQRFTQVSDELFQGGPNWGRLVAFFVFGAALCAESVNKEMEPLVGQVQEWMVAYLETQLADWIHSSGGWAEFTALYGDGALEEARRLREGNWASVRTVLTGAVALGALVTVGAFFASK

endogenous Mcl-1 protein = biological target: T4, endogenous Mcl-1 protein (Homo sapiens, UniProt Q07820); assay: Pull-down assay using biotin-labeled Noxa and 2LMP whole cell lysate; assay type: binding; conditions: Western blot with anti-Mcl-1 antibody
T4 construct: endogenous in cells; host or cells: 2LMP human breast cancer cells (whole cell lysate)
T4 sequence (Q07820 whole entry): as the sequence (Q07820 whole entry) above
Description: FIG. 3: Mcl-1 inhibitors recognize and bind endogenous Mcl-1 protein. Biotin-labeled Noxa (BL-Noxa, […]) was incubated with whole cell lysates of 2LMP cells with or without tested Mcl-1 inhibitors and Bim BH3 peptide as a positive control, followed by incubation with precleared streptavidin agarose beads. Eluted beads were subjected to Western blot analysis with anti-Mcl-1 antibody.

Bcl-xL [4] = biological target: T2, Bcl-xL; assay: Cell-free functional assay with purified mitochondria, Smac release, Bcl-xL; assay type: biochemical; conditions: concentrations as high as 9 μM
Excerpt: To provide direct evidence that 483 and 487 also selectively antagonize Mcl-1 function, a cell-free functional assay was established using purified mitochondria, recombinant Mcl-1 and Bcl-xL proteins, and the BIM BH3 peptide which binds to both proteins with high affinities.

wild-type MEFs = assay: Cell viability in wild-type MEFs; assay type: cell-based, mouse; conditions: 15 h, propidium iodide staining, flow cytometry
Description: (§1) FIG. 5A-B: A) 483 induces Bax/Bak and Mcl-1 dependent cell death. Mouse Embryonic Fibroblasts (MEFs) were treated for 15 h with 483 and ABT263. Cell viability was assessed using propidium iodide staining detected with flow cytometry. […] Cells were treated for 15 h with increasing concentrations of (A) 483 and (B) ABT263. […] The percentage of dead cells was calculated using LIVE/DEAD fixable violet dead cell stain (VIVID) and detected with flow cytometry. (*) is p<0.001.
(§2) Wild-type, Bax/Bak double knockout and Mcl-1 knockout MEFs cells have been employed as models to establish the mechanism-based apoptosis and on-target activity (see, e.g., Lindsten, T., and Thompson, C. B. (2006) Cell death and differentiation 13, 1272-1276). […] The specificity of this class Mcl-1 inhibitors was further confirmed by using cell lines developed by retroviral transduction of lymphoma cells isolated from Eg-myc transgenic mice which survival depends on the expression of individual prosurvival protein.

[5] = tested on: Bax/Bak double knockout MEFs; assay: Cell viability in Bax/Bak double knockout MEFs; assay type: cell-based; conditions: 15 h
Description: as §1, §2

[6] = tested on: Eμ-myc lymphoma cells overexpressing Mcl-1; assay: Cell death in Eμ-myc lymphoma cells overexpressing Mcl-1; assay type: cell-based, mouse; conditions: Eμ-myc lymphoma overexpressing Mcl-1, 15 h, VIVID stain, flow cytometry
Description: as §1, §2

[7] = tested on: Eμ-myc lymphoma cells overexpressing Bcl-2; assay: Cell death in Eμ-myc lymphoma cells overexpressing Bcl-2; assay type: cell-based, mouse; conditions: Eμ-myc lymphoma overexpressing Bcl-2, 15 h
Description: as §1, §2

[8] = biological target: T5, Mcl-1/BAK protein-protein interactions (Homo sapiens, UniProt Q07820); assay: Co-immunoprecipitation of Mcl-1 protein in Panc-1 cells; assay type: cell-based; conditions: different concentrations, Mcl-1 immunoprecipitation and Western blot
T5 construct: endogenous in cells; host or cells: Panc-1 cells
T5 sequence (Q07820 whole entry): as above
Excerpt: FIG. 8: 483LM disrupts the Mcl-1/BAK protein-protein interactions in Panc-1 cell line.

Mcl-1 [9] = biological target: T1, Mcl-1; conditions: cited from earlier work
Target sequence in this assay (Q07820 whole entry, species assumed): as the sequence (Q07820 whole entry) above

[10] = FP assay using Bid BH3 peptide as a probe

Ki (Mcl-1 [1]; [10]): 490 ± 10 nM
chemical shift perturbations in HSQC NMR spectrum (Mcl-1 [2]): large chemical shift perturbations
Structure (SMILES): O=C(O)c1cc(SCCc2ccccc2)ccc1NS(=O)(=O)c1ccccc1 [Compound 368, 5-(Phenethylthio)-2-(phenylsulfonamido)benzoic acid]

Structure (SMILES): CC1(C)CCC(c2ccc(Cl)cc2)=C(CN2CCN(c3ccc(C(=O)NS(=O)(=O)c4ccc(N[C@H](CCN5CCOCC5)CSc5ccccc5)c(S(=O)(=O)C(F)(F)F)c4)cc3)CC2)C1 [ABT-263, reference compound]
cytotoxicity / growth-inhibitory activity (Mcl-1 knockout MEFs): increased growth-inhibitory activity
effect on cell line, single agent (Panc-1 cells; Panc-1, 48 h): little effect

Structure (SMILES): CC(C)c1cc(NC(=O)c2ccc(Oc3ccccc3)cc2)c(C(=O)O)cc1-c1ccc(COc2cccc(C(F)(F)F)c2)cc1 [Compound 483, 6-isopropyl-4-(4-phenoxybenzamido)-4′-((3-(trifluoromethyl)phenoxy)methyl)-[1,1′-biphenyl]-3-carboxylic acid]
Ki (Mcl-1 [1]; binding affinity to Mcl-1): 7 ± 2 nM
Ki (Bcl-2): > 1000 nM
Ki (Bcl-xL [3]): > 1000 nM
Ki (Bcl-w): > 1000 nM
blocking of the binding of BL-Noxa to Mcl-1 (endogenous Mcl-1 protein): dose-dependent blocked
release of Smac in the Bcl-xL functional assay (Bcl-xL [4]): fail to release Smac
cell death (wild-type MEFs): causes cell death
cytotoxicity [5]: didn't show cytotoxicity
cytotoxicity / growth-inhibitory activity (Mcl-1 knockout MEFs): didn't show cytotoxicity
cell death / sensitization [6]: led to sensitization; also recorded: selectively induces cell death
effect on cells [7]: did not show effect
combination effect with ABT-263 (Panc-1 cells; Panc-1, 48 h): synergizes; also recorded: substantially shifted the dose-response curve
improvement of IC50 of cell growth inhibition of ABT-263 (Panc-1 cells; Panc-1, ABT-263 in the presence of 483, 48 h): more than 660 fold
disruption of Mcl-1/Bak protein-protein interactions [8]: dose-dependent disruption
disruption of Mcl-1/Bak protein-protein interactions ([8]; listed as 483LM): disrupts

Ki (Mcl-1 [1]; Binding affinity of Mcl-1 inhibitors using FP based assay, Table 1): 8 ± 2 nM
release of Smac in the Bcl-xL functional assay (Bcl-xL [4]): fail to release Smac
Structure (SMILES): CC(C)c1cc(NC(=O)c2ccc(Oc3ccc(F)cc3)cc2)c(C(=O)O)cc1-c1ccc(COc2cccc(C(F)(F)F)c2)cc1 [Compound 487, 4-(4-(4-fluorophenoxy)benzamido)-6-isopropyl-4′-((3-(trifluoromethyl)phenoxy)methyl)-[1,1′-biphenyl]-3-carboxylic acid]

Ki (Mcl-1 [1]; [10]): 2090 ± 180 nM
chemical shift perturbations in HSQC NMR spectrum (Mcl-1 [2]): concentration-dependent perturbations
Structure (SMILES): O=C(CSc1nnc(-c2ccco2)c(-c2ccco2)n1)Nc1ccccc1 [Compound E238, reference compound]

Structure (SMILES): CN(C)CC[C@H](CSc1ccccc1)Nc1ccc(S(=O)(=O)NC(=O)c2ccc(N3CCN(Cc4ccccc4-c4ccc(Cl)cc4)CC3)cc2)cc1[N+](=O)[O-] [ABT-737]
binding to Mcl-1 (Mcl-1 [9]): fails to bind
